Experimental data as given in US9795607B2, “Substituted pyrrolopyrimidine compounds, compositions thereof, and methods of treatment therewith” (Signal Pharmaceutical, LLC, priority 2013, dated 2017).

Tested on: Triple negative breast cancer cell line CAL51
Experiment: Cell Titer Glo proliferation assay, CAL51
Type: cell-based
Conditions: Homo sapiens, CAL-51; CAL51 cell proliferation (Table 1); read-out: Act. Level
Description: Cell Titer Glo Proliferation Assay.
Triple negative breast cancer cell line CAL51 was purchased from DSMZ. […] Allcell lines were maintained in growth media consisting of 90% high glucose Dulbecco's Modified Eagle Medium or RPMI1640 (Invitrogen), 10% fetal bovine serum (Hyclone), and 2 mM L-glutamine (Invitrogen). […] After overnight culture, compound stock (30 mM) was diluted serially in DMSO, further diluted in growth media, and was added to each well as a 10× concentrated solution in a volume of 11 μL, mixed, and allowed to incubate with cells. The compound vehicle (DMSO) was maintained at a final concentration of 0.2% in all wells. After 72 h, 100 μL of Cell Titer Glo solution (Promega) was added to each well of the 96-well plate. The plate was placed on a shaker for 2 minutes. After 10 minutes incubation, the luminescence signal was detected with Envision microplate reader (Perkin Elmer).

Compound	IC50 [µM]
CNC(=O)c1ccc(-c2c[nH]c3nc(Nc4ccc(C(=O)NC)cc4Cl)nc(OC)c23)cc1 [Example 428, 3-chloro-4-(4-methoxy-5-(4-(methylcarbamoyl)phenyl)-7H-pyrrolo[2,3-d]pyrimidin-2-ylamino)-N-methylbenzamide]	< 0.1
CNC(=O)c1ccc(Nc2nc(NC3CCOCC3)c3c(-c4ccc5nc(C)oc5c4)c[nH]c3n2)c(Cl)c1 [Example 430, 3-chloro-N-methyl-4-(5-(2-methylbenzo[d]oxazol-6-yl)-4-(tetrahydro-2H-pyran-4-ylamino)-7H-pyrrolo[2,3-d]pyrimidin-2-ylamino)benzamide]	< 0.1
Cc1nc2ccc(-c3c[nH]c4nc(Nc5ccc(C(=O)NC6COC6)cc5Cl)nc(OC5CCOCC5)c34)cc2o1 [Example 438, 3-chloro-4-(5-(2-methylbenzo[d]oxazol-6-yl)-4-(tetrahydro-2H-pyran-4-yloxy)-7H-pyrrolo[2,3-d]pyrimidin-2-ylamino)-N-(oxetan-3-yl)benzamide]	< 0.1
COc1nc(Nc2ccc(C(=O)N(C)C)cc2C)nc2[nH]cc(-c3ccc4[nH]c(C)nc4c3)c12 [Example 399, 4-(4-methoxy-5-(2-methyl-1H-benzo[d]imidazol-5-yl)-7H-pyrrolo[2,3-d]pyrimidin-2-ylamino)-N,N,3-trimethylbenzamide]	< 0.1
COc1nc(Nc2ccc(C(=O)N(C)C)cc2C)nc2[nH]cc(-c3ccc(S(C)(=O)=O)cc3)c12 [Example 411, 4-(4-methoxy-5-(4-(methylsulfonyl)phenyl)-7H-pyrrolo[2,3-d]pyrimidin-2-ylamino)-N,N,3-trimethylbenzamide]	1 to 10
COc1nc(Nc2ccc(C(=O)N(C)C)cc2C)nc2[nH]cc(-c3ccc4c(c3)nc(C)n4C)c12 [Example 410, 4-(5-(1,2-dimethyl-1H-benzo[d]imidazol-5-yl)-4-methoxy-7H-pyrrolo[2,3-d]pyrimidin-2-ylamino)-N,N,3-trimethylbenzamide]	1 to 10
COc1cc(C(=O)N(C)C)ncc1Nc1nc(OC)c2c(-c3ccnc(F)c3)c[nH]c2n1 [Example 415, 5-(5-(2-fluoropyridin-4-yl)-4-methoxy-7H-pyrrolo[2,3-d]pyrimidin-2-ylamino)-4-methoxy-N,N-dimethylpicolinamide]	0.4 to 1
COc1nc(Nc2ccc(C(=O)N(C)C)cc2C)nc2[nH]cc(-c3ccc4nc(C)n(C)c4c3)c12 [Example 407, 4-(5-(1,2-dimethyl-1H-benzo[d]imidazol-6-yl)-4-methoxy-7H-pyrrolo[2,3-d]pyrimidin-2-ylamino)-N,N,3-trimethylbenzamide]	0.1 to 0.4
CNC(=O)c1ccc(-c2c[nH]c3nc(Nc4ccc(C(=O)NC)cc4Cl)nc(OC(C)C)c23)cc1 [Example 432, 3-chloro-4-(4-isopropoxy-5-(4-(methylcarbamoyl)phenyl)-7H-pyrrolo[2,3-d]pyrimidin-2-ylamino)-N-methylbenzamide]	< 0.1
CNC(=O)c1ccc(-c2c[nH]c3nc(Nc4ccc(C(=O)NC)cc4Cl)nc(NC4CCOCC4)c23)cc1 [Example 433, 3-chloro-N-methyl-4-(5-(4-(methylcarbamoyl)phenyl)-4-(tetrahydro-2H-pyran-4-ylamino)-7H-pyrrolo[2,3-d]pyrimidin-2-ylamino)benzamide]	< 0.1
CNC(=O)c1ccc(Nc2nc(OC)c3c(-c4ccc5nc(C)oc5c4)c[nH]c3n2)c(Cl)c1 [Example 427, 3-chloro-4-(4-methoxy-5-(2-methylbenzo[d]oxazol-6-yl)-7H-pyrrolo[2,3-d]pyrimidin-2-ylamino)-N-methylbenzamide]	< 0.1

Same assay, conditions: Homo sapiens, CAL-51; CAL51 cell proliferation, Cell Titer Glo; read-out: Act. Level

Compound	IC50 [µM]
COc1cc(C(=O)NC2COC2)ccc1Nc1nc(OC(C)(C)C)c2c(-c3ccc4nc(C)oc4c3)c[nH]c2n1 [Example 370, 4-(4-tert-butoxy-5-(2-methylbenzo[d]oxazol-6-yl)-7H-pyrrolo[2,3-d]pyrimidin-2-ylamino)-3-methoxy-N-(oxetan-3-yl)benzamide]	< 0.1
CNC(=O)c1ccc(Nc2nc(O[C@H]3CCOC3)c3c(-c4cnn(C)c4)c[nH]c3n2)c(OC)c1 [Example 328, (S)-3-methoxy-N-methyl-4-(5-(1-methyl-1H-pyrazol-4-yl)-4-(tetrahydrofuran-3-yloxy)-7H-pyrrolo[2,3-d]pyrimidin-2-ylamino)benzamide]	< 0.1
CNC(=O)c1ccc(-c2c[nH]c3nc(Nc4ccc(C(=O)NC5CN(C)C5)cc4OC)nc(OC4CCOCC4)c23)cc1 [Example 366, 3-methoxy-N-(1-methylazetidin-3-yl)-4-(5-(4-(methylcarbamoyl)phenyl)-4-(tetrahydro-2H-pyran-4-yloxy)-7H-pyrrolo[2,3-d]pyrimidin-2-ylamino)benzamide]	0.1 to 0.4
CNC(=O)c1ccc(Nc2nc(OC3CC3)c3c(-c4ccn(C)n4)c[nH]c3n2)c(OC)c1 [Example 218, 4-(4-cyclopropoxy-5-(1-methyl-1H-pyrazol-3-yl)-7H-pyrrolo[2,3-d]pyrimidin-2-ylamino)-3-methoxy-N-methylbenzamide]	1 to 10
CNC(=O)c1ccc(-c2c[nH]c3nc(Nc4ccc(C(=O)NC5COC5)cc4OC)nc(OC4COC4)c23)cc1 [Example 359, 3-methoxy-4-(5-(4-(methylcarbamoyl)phenyl)-4-(oxetan-3-yloxy)-7H-pyrrolo[2,3-d]pyrimidin-2-ylamino)-N-(oxetan-3-yl)benzamide]	0.1 to 0.4
CNC(=O)c1ccc(-c2c[nH]c3nc(Nc4ccc(C(=O)NC5COC5)cc4OC)nc(OC4CCC(C)(O)CC4)c23)cc1 (stereo not shown) [Example 337, 4-(4-((1s,4s)-4-hydroxy-4-methylcyclohexyloxy)-5-(4-(methylcarbamoyl)phenyl)-7H-pyrrolo[2,3-d]pyrimidin-2-ylamino)-3-methoxy-N-(oxetan-3-yl)benzamide]	< 0.1
CNC(=O)c1ccc(-c2c[nH]c3nc(Nc4cnn(CC(C)(C)O)c4Cl)nc(OC4CCC4)c23)cc1 [Example 372, 4-(2-(5-chloro-1-(2-hydroxy-2-methylpropyl)-1H-pyrazol-4-ylamino)-4-cyclobutoxy-7H-pyrrolo[2,3-d]pyrimidin-5-yl)-N-methylbenzamide]	< 0.1
COc1cc(C(=O)NC2CN(C)C2)ccc1Nc1nc(OC2CCC(C)(O)CC2)c2c(-c3ccc4nc(C)oc4c3)c[nH]c2n1 (stereo not shown) [Example 358, 4-(4-((1s,4s)-4-hydroxy-4-methylcyclohexyloxy)-5-(2-methylbenzo[d]oxazol-6-yl)-7H-pyrrolo[2,3-d]pyrimidin-2-ylamino)-3-methoxy-N-(1-methylazetidin-3-yl)benzamide]	0.1 to 0.4
COc1cc(C(=O)N2CC2)ccc1Nc1nc(OC)c2c(-c3ccncc3)c[nH]c2n1 [Example 338, aziridin-1-yl(3-methoxy-4-(4-methoxy-5-(pyridin-4-yl)-7H-pyrrolo[2,3-d]pyrimidin-2-ylamino)phenyl)methanone]	0.4 to 1
COc1cc(C(=O)NC2COC2)ccc1Nc1nc(OC)c2c(-c3cn(C)nc3C)c[nH]c2n1 [Example 387, 4-(5-(1,3-dimethyl-1H-pyrazol-4-yl)-4-methoxy-7H-pyrrolo[2,3-d]pyrimidin-2-ylamino)-3-methoxy-N-(oxetan-3-yl)benzamide]	1 to 10
CNC(=O)c1ccc(-c2c[nH]c3nc(Nc4ccc(C(=O)NC5CN(C)C5)cc4OC)nc(OC(C)C)c23)cc1 [Example 357, 4-(4-isopropoxy-5-(4-(methylcarbamoyl)phenyl)-7H-pyrrolo[2,3-d]pyrimidin-2-ylamino)-3-methoxy-N-(1-methylazetidin-3-yl)benzamide]	< 0.1
COc1cc(C(=O)NC2CN(C)C2)ccc1Nc1nc(OC(C)C)c2c(-c3ccc4nc(C)oc4c3)c[nH]c2n1 [Example 356, 4-(4-isopropoxy-5-(2-methylbenzo[d]oxazol-6-yl)-7H-pyrrolo[2,3-d]pyrimidin-2-ylamino)-3-methoxy-N-(1-methylazetidin-3-yl)benzamide]	< 0.1
COc1cc(C(=O)NC2COC2)ccc1Nc1nc(OC(C)C)c2c(-c3ccc4nc(C)oc4c3)c[nH]c2n1 [Example 362, 4-(4-isopropoxy-5-(2-methylbenzo[d]oxazol-6-yl)-7H-pyrrolo[2,3-d]pyrimidin-2-ylamino)-3-methoxy-N-(oxetan-3-yl)benzamide]	0.1 to 0.4
CNC(=O)c1ccc(-c2c[nH]c3nc(Nc4ccc(C(=O)NC5COC5)cc4C)nc(OC4CCC4)c23)cc1 [Example 332, 4-(4-cyclobutoxy-5-(4-(methylcarbamoyl)phenyl)-7H-pyrrolo[2,3-d]pyrimidin-2-ylamino)-3-methyl-N-(oxetan-3-yl)benzamide]	< 0.1
COc1cc(C(=O)NC2COC2)ccc1Nc1nc(OC2CCC2)c2c(-c3ccc(-c4ncc[nH]4)cc3)c[nH]c2n1 [Example 360, 4-(5-(4-(1H-imidazol-2-yl)phenyl)-4-cyclobutoxy-7H-pyrrolo[2,3-d]pyrimidin-2-ylamino)-3-methoxy-N-(oxetan-3-yl)benzamide]	< 0.1
COc1cc(C(=O)NC2COC2)ccc1Nc1nc(OC)c2c(-c3ccc4c(C)noc4c3)c[nH]c2n1 [Example 380, 3-methoxy-4-(4-methoxy-5-(3-methylbenzo[d]isoxazol-6-yl)-7H-pyrrolo[2,3-d]pyrimidin-2-ylamino)-N-(oxetan-3-yl)benzamide]	0.1 to 0.4
COc1cc(C(=O)NC2COC2)ccc1Nc1nc(OC)c2c(-c3ccncn3)c[nH]c2n1 [Example 395, 3-methoxy-4-(4-methoxy-5-(pyrimidin-4-yl)-7H-pyrrolo[2,3-d]pyrimidin-2-ylamino)-N-(oxetan-3-yl)benzamide]	1 to 10
